According to patent US7498406B2, “Substantially cell membrane impermeable compound and use thereof” (priority 1999, dated 2009):
“Also recorded” adds a separate entry of the source.

Key:
3T3 [1] = experiment: Proliferation of cultured cells, 72 hr; type: cell-based, murine; conditions: 5% FCS, 0 to 1 mM
Description: (§1) FIG. 19. Effect of GSAO on proliferation of non-endothelial cells. 15,000 BxPC-3 (part A), HT1080 (part B), 3T3 (part C) or BVSM (part D) cells per well were seeded into gelatinised 24-well culture plates and allowed to attach for 24 hr. The media was then replaced with DMEM containing 0 to 1 mM GSAO or GSAA and either 5% BCS (part D) or 5% FCS (parts A, B and C). Cells were cultured for 72 hr and then dispersed and counted. The dotted lines indicate the cell number in control wells containing DMEM and 2% BCS (part D) or 2% FCS (parts A, B and C) which represented no to limited proliferation. The data points and errors represent the mean and range of duplicate wells.
(§2) BCE (Folkman et al. 1979), BAE, BxPC-3 (ATCC, Bethesda, Md.), HT1080 (Jiang et al., 1999), 3T3 (ATCC, Bethesda, Md.) and BVSM (Hogg et al., 1997) cells were harvested and cultured as indicated. […] Cells were cultured for 0 to 72 hr in 10% CO2 at 37° C. then dispersed in trypsin/EDTA (GibcoBRL, Granc Island, N.Y.), resuspended in Coulter balanced electrolyte solution and counted with a Z1 Coulter counter (Coulter Corp., Miami, Fla.) in all experiments there were two control wells containing DMEM with 1% GPS and either 5% BCS for BCE cells, 2% BCS for BAE and BVSM cells, or 2% FCS for BxPC-3, HT1080 and 3T3 cells. […]

3T3 [2] = experiment: Viability of cultured cells, 72 hr; type: cell-based, murine; conditions: 0 to 1 mM
Description: as §1, §2

HDMVE cells = experiment: Endothelial cell tube formation in Matrigel; type: cell-based, human; conditions: 0.1, 1 or 100 μM; 18 hours
Description: FIG. 21. GSAO perturbs endothelial cell tube formation in Matrigel. Matrigel (100 μl) was added to wells of 96 well plates and allowed to gel for 60 minutes at 37° C. HDMVE cells (10,000 cells per well) in complete media containing 0.1, 1 or 100 μM GSAA or GSAO were seeded onto the Matrigel and the plates were incubated in 5% CO2, 37° C. The phase contrast micrographs were taken after 18 hours incubation.
Endothelial cells arrange into tube-like structures when seeded onto three-dimensional matrices such as the extracellular matrix preparation, Matrigel, or collagen. The tubes can be considered to represent immature blood vessels. Matrigel (100 μl, Becton Dickinson, Bedford, Mass.) was added to wells of 96 well plates (Gibco BRL, Gaithersburg, Md.) and allowed to gel for 60 minutes at 37° C. Human dermal microvascular endothelial (HDMVE) cells were harvested and cultured as described by Stathakis et al (1997), HDMVE cells (8,000 cells per well) in 150 μl of M199 (Gibco BRL, Gaithersburg, Md.) media containing 30% pooled human serum, 50 μg per mL Heparin (Sigma, St. Louis, Mo.), 100 μg per mL Endothelial Cell Growth Supplement (Gibco BRL, Gaithersburg, Md.) and 0.1, 1 or 100 μM GSAA or GSAO were seeded onto the Matrigel and the plates were incubated for 18 hours in 5% CO2, 37° C. Phase contrast micrographs of the wells were collected.

BxPC-3 tumours = experiment: Tumour growth, oral administration in water; type: in vivo, SCID mice; conditions: ~10 mg per kg per day in water
Description: (§3) FIG. 28. Inhibition of human pancreatic carcinoma and murine Lewis lung tumour growth by oral administration of GSAO. BxPC-3 or Lewis lung tumours were established in the proximal midline of female 7 to 9 week old SCID or C57Bl6/J mice, respectively, SCID mice bearing ˜0.5 g BxPC-3 tumours or C57Bl6/J mice bearing 0.1 g Lewis lung tumours were randomised into two groups (n=2 for BxPC-3 and n=3 for Lewis lung) and treated with either GSAA or GSAO (0.05 mg per mL) in their water. Mice drink ˜5 mL of water per day and therefore consumed ˜10 mg GSAO or GSM per kg per day. The water contained 100 mM glycine to minimise oxidation of GSAO. Tumour volume and animal weight was measured every 3 days. The data points and errors represent the mean and SE of the tumour volumes.
(§4) SCID mice bearing subcutaneous human pancreatic carcinoma tumours or C57Bl6/J mice bearing subcutaneous murine Lewis lung tumours were fed either ˜10 mg per kg per day GSAO or GSAA in their water.

Lewis lung tumours = experiment: Tumour growth, oral administration in water; type: in vivo, C57Bl6/J mice; conditions: ~10 mg per kg per day in water
Description: as §3, §4

SMILES	Proliferation IC50 (3T3 [1])	Viability IC50 (3T3 [2]; 5% FCS)	effect on tube formation (HDMVE cells)	growth of pancreatic tumours (BxPC-3 tumours)	reduction of the rate of Lewis lung tumour growth (Lewis lung tumours)	IC50 (3T3 [2]; Mus musculus, NIH3T3, 5% FCS) [µM]
N[C@@H](CCC(=O)N[C@@H](CSCC(=O)Nc1ccc([As](=O)(O)O)cc1)C(=O)NCC(=O)O)C(=O)O [GSAA, 4-(N-(S-glutathionylacetyl)amino)phenylarsonic acid, reference compound]	no significant effect	no significant effect	no apparent effect on tube formation	no significant effect	no significant effect	–
NC(CCC(=O)NC(CSCC(=O)Nc1ccc([As]=O)cc1)C(=O)NCC(=O)O)C(=O)O (stereo not shown) [GSAO, 4-(N-(S-glutathionylacetyl)amino)-phenylarsenoxide]	did not affect the proliferation; also recorded: No effect	–	Effects were apparent at 0.1 μM concentration and marked at 100 μM	stopped growing	~50%	~40
